Values of other authors, collected in PMC8513935.
Values belong to the compound of their own block, whether it stands above or below them.

Columns and labels:
[1] = derived by the authors as gas->solvent minus gas->water (a hypothetical dry solvent; the ESI), not a two-phase measurement
[2] = experimental, compiled by the authors from the literature (the ESI cites the sources)

log K of transfer, water to solvent ([1]; Hexadecane, 25 C): 0.484 log10 K | log K of transfer, gas to solvent ([2]; Hexadecane, 25 C): 5.63 log10 K | log K of transfer, gas to solvent ([2]; Water, 25 C): 5.15 log10 K
SMILES: OC12CC3CC(CC(C3)C1)C2

log K of transfer, water to solvent ([1]; Chloroform, 25 C): 2.98 log10 K | log K of transfer, water to solvent ([1]; Hexadecane, 25 C): 1.67 log10 K | log K of transfer, gas to solvent ([2]; Chloroform, 25 C): 6.9 log10 K | log K of transfer, gas to solvent ([2]; Hexadecane, 25 C): 5.59 log10 K | log K of transfer, gas to solvent ([2]; Water, 25 C): 3.92 log10 K
SMILES: c1ccc2cnccc2c1

log K of transfer, water to solvent ([1]; Decan-1-ol, 25 C): 10.5 log10 K | log K of transfer, water to solvent ([1]; Hexadecane, 25 C): 9.12 log10 K | log K of transfer, water to solvent ([1]; Hexan-1-ol, 25 C): 10.5 log10 K | log K of transfer, water to solvent ([1]; Octan-1-ol(dry), 25 C): 10.5 log10 K | log K of transfer, water to solvent ([1]; Propan-2-ol, 25 C): 10.3 log10 K | log K of transfer, gas to solvent ([2]; Decan-1-ol, 25 C): 12 log10 K | log K of transfer, gas to solvent ([2]; Hexadecane, 25 C): 10.7 log10 K | log K of transfer, gas to solvent ([2]; Hexan-1-ol, 25 C): 12.1 log10 K | log K of transfer, gas to solvent ([2]; Octan-1-ol, 25 C): 12.1 log10 K | log K of transfer, gas to solvent ([2]; Propan-2-ol, 25 C): 11.9 log10 K | log K of transfer, gas to solvent ([2]; Water, 25 C): 1.54 log10 K
SMILES: CCCCCCCCCCCCCCCCCCCCO

log K of transfer, water to solvent ([1]; Hexadecane, 25 C): 1.37 log10 K | log K of transfer, gas to solvent ([2]; Hexadecane, 25 C): 4.15 log10 K | log K of transfer, gas to solvent ([2]; Water, 25 C): 2.78 log10 K
SMILES: CCCCCCCN

log K of transfer, water to solvent ([1]; Hexadecane, 25 C): 0.755 log10 K | log K of transfer, gas to solvent ([2]; Hexadecane, 25 C): 3.65 log10 K | log K of transfer, gas to solvent ([2]; Water, 25 C): 2.9 log10 K
SMILES: CCCCCCN

log K of transfer, water to solvent ([1]; Hexadecane, 25 C): 1.27 log10 K | log K of transfer, gas to solvent ([2]; Hexadecane, 25 C): 2.37 log10 K | log K of transfer, gas to solvent ([2]; Water, 25 C): 1.1 log10 K
SMILES: CCSC

log K of transfer, water to solvent ([1]; Chloroform, 25 C): 3.62 log10 K | log K of transfer, gas to solvent ([2]; Chloroform, 25 C): 4.69 log10 K | log K of transfer, gas to solvent ([2]; Hexadecane, 25 C): 3.02 log10 K | log K of transfer, gas to solvent ([2]; Water, 25 C): 1.07 log10 K
SMILES: CCSCC

log K of transfer, water to solvent ([1]; 1,2-Dichloroethane, 25 C): 3.69 log10 K | log K of transfer, water to solvent ([1]; 2-Methylpropan-1-ol, 25 C): 3.73 log10 K | log K of transfer, water to solvent ([1]; 2-Methylpropan-2-ol, 25 C): 3.59 log10 K | log K of transfer, water to solvent ([1]; Acetone, 25 C): 3.5 log10 K | log K of transfer, water to solvent ([1]; Benzene, 25 C): 3.87 log10 K | log K of transfer, water to solvent ([1]; Butan-1-ol, 25 C): 3.63 log10 K | log K of transfer, water to solvent ([1]; Butan-2-ol, 25 C): 3.57 log10 K | log K of transfer, water to solvent ([1]; Butanone, 25 C): 3.65 log10 K | log K of transfer, water to solvent ([1]; Butyronitrile, 25 C): 3.57 log10 K | log K of transfer, water to solvent ([1]; CCl4, 25 C): 4.12 log10 K | log K of transfer, water to solvent ([1]; Chlorobenzene, 25 C): 4.13 log10 K | log K of transfer, water to solvent ([1]; Chloroform, 25 C): 4.16 log10 K | log K of transfer, water to solvent ([1]; Cyclohexane, 25 C): 4.15 log10 K | log K of transfer, water to solvent ([1]; Cyclohexanone, 25 C): 3.71 log10 K | log K of transfer, water to solvent ([1]; Decan-1-ol, 25 C): 3.4 log10 K | log K of transfer, water to solvent ([1]; Di-n-butyl ether, 25 C): 3.91 log10 K | log K of transfer, water to solvent ([1]; Dichloromethane, 25 C): 3.91 log10 K | log K of transfer, water to solvent ([1]; Diethyl Ether, 25 C): 3.97 log10 K | log K of transfer, water to solvent ([1]; Ethanol, 25 C): 3.45 log10 K | log K of transfer, water to solvent ([1]; Heptan-1-ol, 25 C): 3.63 log10 K | log K of transfer, water to solvent ([1]; Hexadecane, 25 C): 3.86 log10 K | log K of transfer, water to solvent ([1]; Hexan-1-ol, 25 C): 3.65 log10 K | log K of transfer, water to solvent ([1]; Hexane, 25 C): 4 log10 K | log K of transfer, water to solvent ([1]; Methanol, 25 C): 3.33 log10 K | log K of transfer, water to solvent ([1]; Octan-1-ol(dry), 25 C): 3.61 log10 K | log K of transfer, water to solvent ([1]; Pentan-1-ol, 25 C): 3.62 log10 K | log K of transfer, water to solvent ([1]; Perfluoroalkane, 25 C): 2.86 log10 K | log K of transfer, water to solvent ([1]; Propan-1-ol, 25 C): 3.45 log10 K | log K of transfer, water to solvent ([1]; Propan-2-ol, 25 C): 3.43 log10 K | log K of transfer, water to solvent ([1]; Propionitrile, 25 C): 3.41 log10 K | log K of transfer, water to solvent ([1]; Tetrahydrofuran, 25 C): 4.03 log10 K | log K of transfer, gas to solvent ([2]; 1,2-Dichloroethane, 25 C): 2.79 log10 K | log K of transfer, gas to solvent ([2]; 2-Methylpropan-1-ol, 25 C): 2.83 log10 K | log K of transfer, gas to solvent ([2]; 2-Methylpropan-2-ol, 25 C): 2.69 log10 K | log K of transfer, gas to solvent ([2]; Benzene, 25 C): 2.97 log10 K | log K of transfer, gas to solvent ([2]; Butan-1-ol, 25 C): 2.73 log10 K | log K of transfer, gas to solvent ([2]; Butan-2-ol, 25 C): 2.67 log10 K | log K of transfer, gas to solvent ([2]; Butanone, 25 C): 2.75 log10 K | log K of transfer, gas to solvent ([2]; Butyronitrile, 25 C): 2.67 log10 K | log K of transfer, gas to solvent ([2]; CCl4, 25 C): 3.22 log10 K | log K of transfer, gas to solvent ([2]; Chlorobenzene, 25 C): 3.23 log10 K | log K of transfer, gas to solvent ([2]; Chloroform, 25 C): 3.26 log10 K | log K of transfer, gas to solvent ([2]; Cyclohexane, 25 C): 3.25 log10 K | log K of transfer, gas to solvent ([2]; Cyclohexanone, 25 C): 2.81 log10 K | log K of transfer, gas to solvent ([2]; Decan-1-ol, 25 C): 2.5 log10 K | log K of transfer, gas to solvent ([2]; Di-n-butyl ether, 25 C): 3.01 log10 K | log K of transfer, gas to solvent ([2]; Dichloromethane, 25 C): 3.01 log10 K | log K of transfer, gas to solvent ([2]; Diethyl Ether, 25 C): 3.07 log10 K | log K of transfer, gas to solvent ([2]; Ethanol, 25 C): 2.55 log10 K | log K of transfer, gas to solvent ([2]; Heptan-1-ol, 25 C): 2.73 log10 K | log K of transfer, gas to solvent ([2]; Hexadecane, 25 C): 2.96 log10 K | log K of transfer, gas to solvent ([2]; Hexan-1-ol, 25 C): 2.75 log10 K | log K of transfer, gas to solvent ([2]; Hexane, 25 C): 3.1 log10 K | log K of transfer, gas to solvent ([2]; Methanol, 25 C): 2.43 log10 K | log K of transfer, gas to solvent ([2]; Octan-1-ol, 25 C): 2.71 log10 K | log K of transfer, gas to solvent ([2]; Pentan-1-ol, 25 C): 2.72 log10 K | log K of transfer, gas to solvent ([2]; Perfluoroalkane, 25 C): 1.96 log10 K | log K of transfer, gas to solvent ([2]; Propan-1-ol, 25 C): 2.55 log10 K | log K of transfer, gas to solvent ([2]; Propan-2-ol, 25 C): 2.53 log10 K | log K of transfer, gas to solvent ([2]; Propanone, 25 C): 2.6 log10 K | log K of transfer, gas to solvent ([2]; Propionitrile, 25 C): 2.51 log10 K | log K of transfer, gas to solvent ([2]; Tetrahydrofuran, 25 C): 3.13 log10 K | log K of transfer, gas to solvent ([2]; Water, 25 C): -0.9 log10 K
SMILES: C1CCCCC1
